Experimental data taken from patent publication US20230165970A1, “COMPOSITIONS AND METHODS FOR THE TREATMENT OF BACTERIAL INFECTIONS” (priority 2017, published 2023).
Converted amounts (≈) assume the structure as drawn. Read-outs that look alike come from different tables or passages of the source. *1 amine or outer side, *2 acyl side, *3 side chain or, on linkers, in order; H or OH if unused. Where a SMILES comes first, the peptide text is derived from it. Bridges are numbered along the chain shown (N, C = ends). Roman numbers before positions name the chains, in order. [ ]: non-standard residue; d: D form. The star is where a group is joined. X5 = C#CCOCCOCCOCCOCCN1C[C@@H](C(=O)[*:1])[C@H](C(=O)[*:2])C1; X2 = O=C([C@@H](N[*:1])[C@H](O)CCC(F)(F)F)[*:2]; Propargyl(OCH2CH2)4CO = C#CCOCCOCCOCCOCCC(=O)*; X3 = CCCCC[C@@H](O)[C@H](N[*:1])C(=O)[*:2]; azaDab = NCCN(N[*:1])C(=O)[*:2]; Aoc(2) = CCCCCC[C@H](N)C(=O)O; hLeu = CC(C)CC[C@H](N)C(=O)O; Nle = CCCC[C@H](N)C(=O)O; Dab = NCC[C@H](N)C(=O)O; azaGly = NNC(=O)O

What was measured:
[1] = system: Ec AR0349 (mcr-1, COL^R); type: cell-based, Escherichia coli; settings: media CA-MHB
[2] = system: Ec 25922 64X-1 (COL^R); type: cell-based, Escherichia coli; settings: media CA-MHB
[3] = system: Sa RN; type: cell-based
[4] = system: LPS from E. coli O111:B4; assay: LPS binding/neutralization by Limulus Amebocyte Lysate (LAL) assay; type: biochemical; settings: LPS 1-10,000 ng/mL, test article 0.25-10 μM; sum of AUCs relative to maximal AUC (Table 15)
Description: The LAL assay (Charles River) was used to determine the binding affinity of test articles to LPS.
(§1) For the assay, 25 μL purified LPS from E. coli O111:1B4 (Sigma) at doses ranging from 1-10,000 ng/mL were incubated with 25 μL of test article at concentrations ranging from 0.25-10 NM. After 5 min incubation at 37° C., 50 μL of LAL reagent, which reacts with lipid A portion from LPS, was added to corresponding wells. After 15 min, absorbance at 405 nm was read on EnSpire plate reader (Perkin Elmer). The % LPS neutralization is calculated relative to a PBS control (background) and LPS control at each concentration (positive control).
LPS neutralization=(1−(absorbance test article−PBS with LAL reagent)/(absorbance no test article−PBS with LAL reagent))×100
To obtain a single value of LPS neutralization for each test article, the area under the curve (AUC) for dose-response of test articles from […] for each LPS concentration was calculated using Prism 7 software. The % LPS neutralization is the sum of the AUCs for each LPS concentration determined relative to the maximal AUC achievable×100.
as §1, with “O111:B4” for “O111:1B4”, “μM.” for “NM.”

[5] = system: Pa LES431; type: cell-based, Pseudomonas aeruginosa
How it was run: (§2)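 Strains are exposed to 8- or 12-step twofold compound dilutions, conjugates being assayed in RPMI B. For Pa LES431, parallel runs include 50% heat-inactivated FBS. Plates incubate overnight, 16-20 h at 35° C.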

[6] = system: Pa PAO1; type: cell-based, Pseudomonas aeruginosa; settings: for MIC in RPMI PA 01: PAO1, pH 7.4
How it was run: as §2

[7] = system: Pa 27853; type: cell-based, Pseudomonas aeruginosa
How it was run: as §2

[8] = system: Kp 10031; type: cell-based, Klebsiella pneumoniae
How it was run: as §2

[9] = system: Kp 43816; type: cell-based, Klebsiella pneumoniae
How it was run: as §2

[10] = system: Ec 25922; type: cell-based, Escherichia coli; settings: for MIC in RPMI EC 25922: pH 7.4
How it was run: as §2

[11] = system: Ec 2469; type: cell-based, Escherichia coli
How it was run: as §2

SMILES	MIC [1] [µg/mL]	MIC [2] [µg/mL]	MIC [3] [µg/mL]	% LPS neutralization [4] [%]	MIC [5] [µg/mL]	MIC ([6]; PAO1) [µg/mL]	MIC in RPMI PA 01 [6] [µg/mL]	MIC [7] [µg/mL]	MIC [8] [µg/mL]	MIC [9] [µg/mL]	MIC [10] [µg/mL]	MIC in RPMI EC 25922 [10] [µg/mL]	MIC [11] [µg/mL]	further results
C#CCOCCOCCOCCOCCC(=O)N[C@@H](CCC(C)C)C(=O)N[C@@H](CCN)C(=O)N[C@H](C(=O)NNC(=O)N[C@H]1CCNC(=O)[C@H]([C@@H](C)O)NC(=O)[C@H](CCN)NC(=O)[C@H](CCN)NC(=O)[C@H](CC(C)C)NC(=O)[C@@H](Cc2ccccc2)NC(=O)[C@H](CCN)NC1=O)[C@H](O)CCCCC [Int-116] ({Propargyl(OCH2CH2)4CO}-[hLeu][Dab][X3][azaGly][Dab][Dab][dF]L[Dab][Dab]T; lactam 5-C)	8 (≈ 5.53 µM)	64 (≈ 44.2 µM)	>128	33.2	4 (≈ 2.76 µM)	4 (≈ 2.76 µM)	8.41 (≈ 5.81 µM)	4 (≈ 2.76 µM)	2 (≈ 1.38 µM)	2 (≈ 1.38 µM)	2 (≈ 1.38 µM)	1.05 (≈ 0.726 µM)	2 (≈ 1.38 µM)	–
C#CCOCCOCCOCCOCCC(=O)N[C@@H](CCC(C)C)C(=O)N[C@@H](CCN)C(=O)N[C@H](C(=O)NN(CCN)C(=O)N[C@H]1CCNC(=O)[C@H]([C@@H](C)O)NC(=O)[C@H](CCN)NC(=O)[C@H](CCN)NC(=O)[C@H](CC(C)C)NC(=O)[C@@H](Cc2ccccc2)NC(=O)[C@H](CCN)NC1=O)[C@@H](C)O [Int-127] ({Propargyl(OCH2CH2)4CO}-[hLeu][Dab]T[azaDab][Dab][Dab][dF]L[Dab][Dab]T; lactam 5-C)	8 (≈ 5.58 µM)	64 (≈ 44.6 µM)	>128	13.0	1 (≈ 0.697 µM)	2 (≈ 1.39 µM)	3.99 (≈ 2.78 µM)	2 (≈ 1.39 µM)	1 (≈ 0.697 µM)	1 (≈ 0.697 µM)	1 (≈ 0.697 µM)	1.00 (≈ 0.697 µM)	1 (≈ 0.697 µM)	–
C#CCOCCOCCOCCOCCC(=O)N[C@@H](CCCCCC)C(=O)N[C@@H](CCN)C(=O)N[C@H](C(=O)NN(CCN)C(=O)N[C@H]1CCNC(=O)[C@H]([C@@H](C)O)NC(=O)[C@H](CCN)NC(=O)[C@H](CCN)NC(=O)[C@H](CC(C)C)NC(=O)[C@@H](Cc2ccccc2)NC(=O)[C@H](CCN)NC1=O)[C@@H](C)O [Int-129] ({Propargyl(OCH2CH2)4CO}-[Aoc(2)][Dab]T[azaDab][Dab][Dab][dF]L[Dab][Dab]T; lactam 5-C)	–	–	>128	23.0	2 (≈ 1.38 µM)	8 (≈ 5.53 µM)	–	4 (≈ 2.76 µM)	2 (≈ 1.38 µM)	2 (≈ 1.38 µM)	1 (≈ 0.691 µM)	–	2 (≈ 1.38 µM)	–
C#CCOCCOCCOCCOCCC(=O)N[C@@H](CCCCCC)C(=O)N[C@@H](CCN)C(=O)N[C@H](C(=O)N[C@@H](CCN)C(=O)N[C@H]1CCNC(=O)[C@H]([C@@H](C)O)NC(=O)[C@H](CCN)NC(=O)[C@H](CCN)NC(=O)[C@H](CC(C)C)NC(=O)[C@@H](Cc2ccccc2)NC(=O)[C@H](CCN)NC1=O)[C@H](O)CCC(F)(F)F [Int-118] ({Propargyl(OCH2CH2)4CO}-[Aoc(2)][Dab][X2][Dab][Dab][Dab][dF]L[Dab][Dab]T; lactam 5-C)	–	–	>128	59.0	1 (≈ 0.654 µM)	2 (≈ 1.31 µM)	3.81 (≈ 2.49 µM)	2 (≈ 1.31 µM)	2 (≈ 1.31 µM)	2 (≈ 1.31 µM)	1 (≈ 0.654 µM)	0.95 (≈ 0.621 µM)	1 (≈ 0.654 µM)	–
C#CCOCCOCCOCCOCCN1C[C@@H](C(=O)N[C@@H](CCCC)C(=O)N[C@@H](CCN)C(=O)N[C@H](C(=O)NNC(=O)N[C@H]2CCNC(=O)[C@H]([C@@H](C)O)NC(=O)[C@H](CCN)NC(=O)[C@H](CCN)NC(=O)[C@H](CC(C)C)NC(=O)[C@@H](Cc3ccccc3)NC(=O)[C@H](CCN)NC2=O)[C@@H](C)O)[C@H](C(=O)N[C@@H](CCCC)C(=O)N[C@@H](CCN)C(=O)N[C@H](C(=O)NNC(=O)N[C@H]2CCNC(=O)[C@H]([C@@H](C)O)NC(=O)[C@H](CCN)NC(=O)[C@H](CCN)NC(=O)[C@H](CC(C)C)NC(=O)[C@@H](Cc3ccccc3)NC(=O)[C@H](CCN)NC2=O)[C@@H](C)O)C1 [Int-120] (I: [Nle][Dab]T[azaGly][Dab][Dab][dF]L[Dab][Dab]T / II: [Nle][Dab]T[azaGly][Dab][Dab][dF]L[Dab][Dab]T; lactam I:5-I:C, II:5-II:C; linker I:N-II:N via X5)	2 (≈ 0.767 µM)	2 (≈ 0.767 µM)	>128	68.0	–	–	–	–	–	–	–	–	–	MIC ([5]; Pa LES431 + FBS (50%, heat-inactivated), media CA-MHB): 8 µg/mL; MIC ([5]; Pa LES431, media CA-MHB): 2 µg/mL (≈ 0.767 µM); MIC ([6]; Pa PAO1, media CA-MHB): 4 µg/mL (≈ 1.53 µM); MIC ([7]; Pa 27853, media CA-MHB): 4 µg/mL (≈ 1.53 µM); MIC ([8]; Kp 10031, media CA-MHB): 2 µg/mL (≈ 0.767 µM); MIC ([9]; Kp 43816, media CA-MHB): 2 µg/mL (≈ 0.767 µM); MIC ([10]; Ec 25922 + FBS (50%, heat-inactivated), media CA-MHB): 0.25 µg/mL; MIC ([10]; Ec 25922, media CA-MHB): 2 µg/mL (≈ 0.767 µM); MIC ([11]; Ec 2469, media CA-MHB): 2 µg/mL (≈ 0.767 µM)
